Legend:
human GPR40 [1] = molecular target: T1, human GPR40 (Homo sapiens, UniProt O14842); assay: Inositol Phosphate Turnover (IP1) Assay 1; settings: Human IP1 Assay 1, EC50, nM, HEK cells stably expressing human GPR40
Method: The assay is performed in 96-well format. HEK cells stably expressing human GPR40 are plated to be 60-80% confluent within 72 h. After 72 h, the plates are aspirated and the cells washed with inositol-free DMEM (ICN). The wash media is replaced with 150 μL of 3H-inositol labeling media (inositol-free media containing 0.4% human albumin or 0.4% mouse albumin, 1× pen/strep antibiotics, glutamine, 25 mM HEPES to which is added 3H-myo-inositol NEN #NET114A 1 mCi/mL, 25 Ci/mmol diluted 1:150 in loading media with a final specific radioactivity of 1 μCi/150 μL). Alternatively, the human and mouse albumin can be added after the overnight labeling step before the addition of LiCl.
The assay is typically run the next day after 18 h labeling. On the day of the assay, 5 μL of 300 mM LiCl is added to all wells and incubated at 37 degrees for 20 min. 0.75 μL of 200× compounds are added and incubated with the cells for 60 min at 37 degrees. The media is then aspirated off and the assay terminated with the addition of 60 μL 10 mM formic acid. The cells are lysed for 60 min at room temperature. 15-30 μL of lysate is mixed with 70 μL/1 mg YSi SPA beads (Amersham) in clear bottom Isoplates. The plates are shaken for 2 h at room temperature. Beads are allowed to settle and the plates are counted in the Wallac Microbeta.

human GPR40 [2] = molecular target: T1, human GPR40; assay: FLIPR assay (agonist-induced calcium mobilization); settings: Human FLIPR EC50, nM or % activation (EC50 values), GPR40/CHO NFAT BLA cells
Method: Human and mouse GPR40 stable cell-lines were generated in CHO cells stably expressing NFAT BLA (Beta-lactamase). […] The expression plasmids were transfected using lipofectamine (Life Technologies) following manufacturer's instructions. Stable cell-lines were generated following drug selection.
FLIPR (Fluorimetric Imaging Plate Reader, Molecular Devices) assays were performed to measure agonist-induced calcium mobilization of the stable clones. For the FLIPR assay, one day before assay, GPR40/CHO NFAT BLA cells were seeded into black-wall-clear-bottom 384-well plates (Costar) at 1.4×10e4 cells/20 μL medium/well. The cells were incubated with 20 μl/well of the assay buffer (HBSS, 0.1% BSA, 20 mM HEPES, 2.5 mM probenecid, pH 7.4) containing 8 μM fluo-4, AM, 0.08% pluronic acid at room temperature for 100 minutes. Fluorescence output was measured using FLIPR. Compounds were dissolved in DMSO and diluted to desired concentrations with assay buffer.

T1 sequence (O14842 whole entry): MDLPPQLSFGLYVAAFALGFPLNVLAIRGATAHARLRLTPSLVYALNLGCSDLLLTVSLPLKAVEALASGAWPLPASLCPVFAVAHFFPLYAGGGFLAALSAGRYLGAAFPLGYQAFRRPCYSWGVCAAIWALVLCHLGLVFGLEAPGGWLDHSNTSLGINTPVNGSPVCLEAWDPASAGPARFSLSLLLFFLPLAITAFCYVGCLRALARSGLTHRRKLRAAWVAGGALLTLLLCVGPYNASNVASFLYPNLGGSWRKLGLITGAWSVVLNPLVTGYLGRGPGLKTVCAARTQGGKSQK

Work on `CC#C[C@@H](CC(=O)O)c1ccc2c(c1)CCC(c1cccc(-c3cccc4c3c(C(F)(F)F)nn4C)c1)O2` (mixture of isomers) [Example 32] yielded an EC50 (human GPR40 [1]) of 149 nM and an EC50 (human GPR40 [2]) of 57 nM.

For `CC#C[C@@H](CC(=O)O)c1ccc2c(c1)CCC(c1cc(C3=CCCC3(C)C)ccc1F)O2` (mixture of isomers) [Example 33], the EC50 (human GPR40 [1]) was 1300 nM and the EC50 (human GPR40 [2]) was 114 nM.

`CC(C)=CC(CC(=O)O)c1ccc2c(c1)CCC(c1cccc(-c3c(C)cccc3C)c1)O2` (mixture of isomers) [Example 44] gave an EC50 (human GPR40 [1]) of 6060 nM and an EC50 (human GPR40 [2]) of 69 nM.

Work on `CC#C[C@@H](CC(=O)O)c1ccc2c(c1)CCC(c1ccc(OCc3ccccc3)cc1)O2` (mixture of isomers) [Example 50] yielded an EC50 (human GPR40 [1]) of 877 nM and an EC50 (human GPR40 [2]) of 9 nM.

For `CC#C[C@@H](CC(=O)O)c1ccc2c(c1)CCC(c1ccc(-c3cc(OC)ccc3F)cc1)O2` (mixture of isomers) [Example 51], the EC50 (human GPR40 [1]) was 1200 nM and the EC50 (human GPR40 [2]) was 105 nM.

Work on `CC#C[C@@H](CC(=O)O)c1ccc2c(c1)CCC(c1ccc(OCc3ccccc3)c(-c3c(C)cccc3C)c1)O2` (mixture of isomers) [Example 52] yielded an EC50 (human GPR40 [1]) of 248 nM and an EC50 (human GPR40 [2]) of 17 nM.

For `Cc1ccccc1-c1cc(F)c(C2CCc3cc4c(cc3O2)OC[C@H]4CC(=O)O)cc1-c1ccccc1C` (mixture of isomers) [Example 59], the EC50 (human GPR40 [1]) was 2520 nM and the EC50 (human GPR40 [2]) was 51 nM.

`Cc1cccc(C)c1-c1ccc(F)c(C2CCc3cc(CCC(=O)O)ccc3O2)n1` (racemic) [Example 3] gave an EC50 (human GPR40 [1]) of 3630 nM and an EC50 (human GPR40 [2]) of 292 nM.

Compound `Cc1cc(OCCS(C)(=O)=O)cc(C)c1-c1cccc(C2CCc3cc(CCC(=O)O)ccc3O2)c1` (racemic) [Example 6] has an EC50 (human GPR40 [1]) of 1700 nM and an EC50 (human GPR40 [2]) of 185 nM.

Work on `COc1ccc(F)c(-c2ccc(C3CCc4ccc(CCC(=O)O)cc4O3)cc2C2=CCCC2(C)C)c1` (racemic) [Example 48] yielded an EC50 (human GPR40 [1]) of 1020 nM and an EC50 (human GPR40 [2]) of 12 nM.

Compound `Cc1cccc(C)c1-c1cccc(C2CCc3cc(CCC(=O)O)ccc3O2)c1` (single isomer, unassigned) [Example 4] has an EC50 (human GPR40 [1]) of 544 nM and an EC50 (human GPR40 [2]) of 38 nM.

For `Cc1cccc(C)c1-c1cccc(C2CCc3cc(CCC(=O)O)ccc3O2)c1` (single isomer, unassigned) [Example 5], the EC50 (human GPR40 [1]) was 1670 nM and the EC50 (human GPR40 [2]) was 85 nM.

Work on `CC#C[C@@H](CC(=O)O)c1ccc2c(c1)CCC(c1cc(-c3c(C)cccc3C)ccc1F)O2` (single isomer, unassigned) [Example 21] yielded an EC50 (human GPR40 [1]) of 83 nM and an EC50 (human GPR40 [2]) of 26 nM.

For `CC#C[C@@H](CC(=O)O)c1ccc2c(c1)CCC(c1cc(-c3cccnc3C(F)(F)F)ccc1F)O2` (single isomer, unassigned) [Example 35], the EC50 (human GPR40 [1]) was 31 nM and the EC50 (human GPR40 [2]) was 37 nM.

`CC#C[C@@H](CC(=O)O)c1ccc2c(c1)CCC(c1cc(-c3ccc(OC)nc3C)ccc1F)O2` (single isomer, unassigned) [Example 37] was tested, and the EC50 (human GPR40 [1]) was 47 nM and the EC50 (human GPR40 [2]) was 38 nM.

`CC#C[C@@H](CC(=O)O)c1ccc2c(c1)CCC(c1cc(-c3ccc(OC)nc3C)ccc1F)O2` (single isomer, unassigned) [Example 38] showed an EC50 (human GPR40 [1]) of 1690 nM and an EC50 (human GPR40 [2]) of 83 nM.

Work on `CC#C[C@@H](CC(=O)O)c1ccc2c(c1)CCC(c1cccc(-c3cccc4c3c(C(F)(F)F)nn4C)c1)O2` (single isomer, unassigned) [Example 41] yielded an EC50 (human GPR40 [1]) of 175 nM and an EC50 (human GPR40 [2]) of 64 nM.

Compound `CC#C[C@@H](CC(=O)O)c1ccc2c(c1)CCC(c1cccc(-c3cccc4c3c(C(F)(F)F)nn4C)c1)O2` (single isomer, unassigned) [Example 42] has an EC50 (human GPR40 [1]) of 1220 nM and an EC50 (human GPR40 [2]) of 74 nM.

`Cc1cccc(C)c1-c1cccc(C2CCc3cc(CCC(=O)O)ccc3O2)c1` (stereo not shown) [Example 1, 3-(2-(2′,6′-dimethyl-[1,1′-biphenyl]-3-yl)chroman-6-yl)propanoic acid] gave an EC50 (human GPR40 [1]) of 1210 nM and an EC50 (human GPR40 [2]) of 102 nM.

For `Cc1ccccc1-c1ccc(F)c(C2CCc3cc4c(cc3O2)OC[C@H]4CC(=O)O)c1` (stereo partly shown) [Example 56], the EC50 (human GPR40 [1]) was 1910 nM and the EC50 (human GPR40 [2]) was 117 nM.
